According to PubChem BioAssay (NCI):
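Following 48 hours of exposure in 96-well plates, responses at five concentrations were used to interpolate endpoints linearly. GI50: concentration for 50% inhibition of growth. TGI is the concentration that stops growth completely.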

Experiments:
Experiment in all cases: NCI-60 cell line screen, 48 h
[1] = system: SF-268 CNS
[2] = system: K-562 leukemia
[3] = system: OVCAR-4 ovarian
[4] = system: MDA-MB-231 breast
[5] = system: UACC-257 melanoma
[6] = system: RPMI-8226 leukemia
[7] = system: CCRF-CEM leukemia
[8] = system: SK-MEL-5 melanoma
[9] = system: HT29 colon
[10] = system: SW-620 colon

Compound | GI50 [1] | TGI [1] | GI50 [2] | TGI [2] | GI50 [3] | TGI [3] | GI50 [4] | TGI [4] | GI50 [5] | TGI [5] | GI50 [6] | TGI [6] | GI50 [7] | TGI [7] | GI50 [8] | TGI [8] | GI50 [9] | TGI [9] | GI50 [10] | TGI [10]
Clc1ccccc1-c1nc2ccccc2[nH]1 | > 100 µM | > 100 µM | 80.2 µM | > 100 µM | > 100 µM | > 100 µM | > 100 µM | > 100 µM | > 100 µM | > 100 µM | 94 µM | > 100 µM | > 100 µM | > 100 µM | > 100 µM | > 100 µM | > 100 µM | > 100 µM | > 100 µM | > 100 µM
CC12C=CC(C)(O1)C1C2c2ccccc2S1(=O)=O (stereo not given) | 68 µM | > 100 µM | 69.7 µM | > 100 µM | 31.6 µM | > 100 µM | 69.9 µM | > 100 µM | 41.7 µM | > 100 µM | 44.3 µM | > 100 µM | 28.2 µM | > 100 µM | 38.7 µM | > 100 µM | > 100 µM | > 100 µM | 39.9 µM | > 100 µM
COC(=O)[C@]12CC[C@@H](C)[C@H](C)[C@@H]1C1=CC[C@@H]3[C@@]4(C)C(c5ncon5)=C[C@@](C)(CO)C4=CC[C@@]3(C)[C@]1(C)CC2 | 2.34 µM | 6.89 µM | 2.22 µM | 4.82 µM | 3.1 µM | 11.8 µM | 2.2 µM | 5.08 µM | 2.1 µM | 4.34 µM | 2.32 µM | 6.33 µM | 1.89 µM | 4.35 µM | 1.88 µM | 3.41 µM | 1.94 µM | 3.88 µM | 1.96 µM | 3.85 µM
Cn1c2ccccc2c2cc(-c3ccccc3)c3c(c21)C(=O)C=CC3=O |  | 77.4 µM |  | > 70.6 µM |  | 41.3 µM |  | 47.4 µM |  | 50.9 µM |  | 8.61 µM |  | > 48.5 µM |  | > 62.7 µM |  | 42.7 µM |  | 33.4 µM
